For orientation: pIC50 means the IC50 on a negative log10 scale, so that one unit is a factor of ten.

SMILES strings stand for the structures. pIC50: −log10 of the molar value.

Here are results for 24 compounds from patent publication US20030229053A1, “Compounds and methods for the treatment or prevention of flavivirus infections” (Shire BioChem Inc., priority 2001, published 2003).

recombinant HCV NS5B, sequence (P26663 2420-3010 limits assumed): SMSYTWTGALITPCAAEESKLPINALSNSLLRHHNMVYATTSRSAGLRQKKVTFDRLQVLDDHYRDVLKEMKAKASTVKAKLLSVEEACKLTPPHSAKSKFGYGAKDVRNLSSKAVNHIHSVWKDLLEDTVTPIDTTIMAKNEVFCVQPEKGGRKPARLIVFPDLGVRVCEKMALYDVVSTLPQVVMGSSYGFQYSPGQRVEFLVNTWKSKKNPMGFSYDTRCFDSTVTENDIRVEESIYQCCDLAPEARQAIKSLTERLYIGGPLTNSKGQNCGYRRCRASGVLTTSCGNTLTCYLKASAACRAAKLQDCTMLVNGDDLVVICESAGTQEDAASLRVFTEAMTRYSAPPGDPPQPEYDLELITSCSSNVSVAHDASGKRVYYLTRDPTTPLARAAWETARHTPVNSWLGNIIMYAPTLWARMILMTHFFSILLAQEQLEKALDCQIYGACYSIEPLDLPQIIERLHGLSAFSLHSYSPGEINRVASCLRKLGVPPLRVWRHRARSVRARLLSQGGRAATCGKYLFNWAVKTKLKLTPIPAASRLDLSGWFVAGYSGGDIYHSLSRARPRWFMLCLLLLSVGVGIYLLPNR

The test has as its target recombinant HCV NS5B (Hepatitis C virus genotype 1b, UniProt P26663). Description: biochemical. As to conditions: flashplate, polyrA/biotinylated-oligo dT, 100 nM NS5B, 2 hrs at room temperature; read-out: RNA pol Assay 2 IC50 (μm). As to the method: In vitro HCV RdRp Flashplate Scintillation Proximity Assay (Strep-Flash Assay) Used to Evaluate Analogues:
In brief, a 400 ng/μl polyrA solution (Amersham Pharmacia Biotech) was mixed volume-to-volume with 5′ biotin-oligo dT12 at 20 pmol/μl. The template and primers were denatured at 95 C for 5 minutes then incubated at 37 C for 10 minutes. Annealed template-primers were subsequently diluted in a Tris-HCl containing buffer and allowed to bind to streptavidin-coated flashplates overnight.
Regarding `O=C(O)[C@H](Cc1ccccc1)N(Cc1ccc([N+](=O)[O-])cc1)C(=O)c1ccc(Cl)cc1Cl` [Compound #202, 2-[(2,4-DICHLORO-BENZOYL)-(4-NITRO-BENZYL)-AMINO]-3-PHENYL-PROPIONIC], the pIC50 was 4.70 to 5.30.
For the compound `N#Cc1ccccc1CN(C(=O)c1ccc(Cl)cc1Cl)[C@@H](Cc1ccccc1)C(=O)O` [Compound #203, 2-[(2-CYANO-BENZYL)-(2,4-DICHLORO-BENZOYL)-AMINO]-3-PHENYL-PROPIONIC ACID], the pIC50 is 4.70 to 5.30.
Regarding `N#Cc1ccc(CN(C(=O)c2ccc(Cl)cc2Cl)[C@@H](Cc2ccccc2)C(=O)O)cc1` [Compound #204, 2-[(4-CYANO-BENZYL)-(2,4-DICHLORO-BENZOYL)-AMINO]-3-PHENYL-PROPIONIC ACID], the negative-log IC50 (pIC50) is 4.70 to 5.30.
Regarding `CS(=O)(=O)c1cccc(CN(C(=O)c2ccc(Cl)cc2Cl)[C@@H](Cc2ccccc2)C(=O)O)c1` [Compound #208, 2-[(2,4-DICHLORO-BENZOYL)-(3-METHANESULFONYL-BENZYL)-AMINO]-3-PHENYL-PROPIONIC ACID], the negative logarithm of the IC50 (pIC50) is 4.70 to 5.30.
Consider `CC(=O)c1cccc(CN(C(=O)c2ccc(Cl)cc2Cl)[C@@H](Cc2ccccc2)C(=O)O)c1` [Compound #209, 2-[(3-ACETYL-BENZYL)-(2,4-DICHLORO-BENZOYL)-AMINO]-3-PHENYL-PROPIONIC ACID], for which the pIC50 was greater than 5.30.
For the compound `O=C(O)[C@H](Cc1ccccc1)N(Cc1ccc[n+]([O-])c1)C(=O)c1ccc(Cl)cc1Cl` [Compound #210, 2-[(2,4-DICHLORO-BENZOYL)-(1-OXY-PYRIDIN-3-YLMETHYL)-AMINO]-3-PHENYL-PROPIONIC ACID], the negative-log IC50 (pIC50) was greater than 5.30.
With `O=C(O)[C@H](Cc1ccccc1)N(Cc1ccc(-c2cccc(C(F)(F)F)c2)s1)C(=O)c1ccc(Cl)cc1Cl` [Compound #211, 2-{(2,4-Dichloro-benzoyl)-[5-(3-trifluoromethyl-phenyl)-thiophen-2-ylmethyl]-amino}-3-phenyl-propionic acid], the pIC50 is 4.70 to 5.30.
The result for `N#Cc1cccc(CN(C(=O)c2ccc(Cl)cc2Cl)[C@@H](Cc2ccccc2)C(=O)O)c1` [compound #54, (2S)-2-[(3-Cyano-benzyl)-(2,4-dichloro-benzoyl)-amino]-3-phenyl-propionic acid] reads greater than 5.30; that for `O=C(O)[C@H](Cc1ccccc1)N(Cc1cnc(-c2cccc([N+](=O)[O-])c2)s1)C(=O)c1ccc(Cl)cc1Cl` [compound #64, 2-{(2,4-Dichloro-benzoyl)-[2-(3-nitro-phenyl)-thiazol-5-ylmethyl]-amino}-3-phenyl-propionic acid], greater than 5.30; that for `O=C(O)[C@H](Cc1ccccc1)N(Cc1cnc(-c2cc3ccccc3o2)s1)C(=O)c1ccc(Cl)cc1Cl` [compound #86, 2-[(2-Benzofuran-2-yl-thiazol-5-ylmethyl)-(2,4-dichloro-benzoyl)-amino]-3-phenyl-propionic acid], greater than 5.30.
`O=C(O)[C@H](Cc1ccccc1)N(Cc1cnc(Cl)s1)C(=O)c1ccc(Cl)cc1Cl` [compound #140, (2s)-2-[(2-Chloro-thiazol-5-ylmethyl)-(2,4-dichloro-benzoyl)-amino]-3-phenyl-propionic acid]: the pIC50 was greater than 5.30.
As for `O=C(O)[C@H](Cc1ccccc1)N(Cc1ccc(-c2ccc(F)cc2)s1)C(=O)c1ccc(Cl)cc1Cl` [compound #141, (2s)-2-{(2,4-Dichloro-benzoyl)-[5-(4-fluoro-phenyl)-thiophen-2-ylmethyl]-amino}-3-phenyl-propionic acid], the pIC50 is greater than 5.30.
As for `O=C(O)[C@H](Cc1ccccc1)N(Cc1sccc1-c1ccc(F)c(Cl)c1)C(=O)c1ccc(Cl)cc1Cl` [compound #145, (2s)-2-[[3-(3-Chloro-4-fluoro-phenyl)-thiophen-2-ylmethyl]-(2,4-dichloro-benzoyl)-amino]-3-phenyl-propionic acid], the negative logarithm of the IC50 (pIC50) was 4.70 to 5.30.
Take `O=C(O)[C@H](Cc1ccccc1)N(Cc1sccc1Br)C(=O)c1ccc(Cl)cc1Cl` [compound #146, (2s)-2-[(3-Bromo-thiophen-2-ylmethyl)-(2,4-dichloro-benzoyl)-amino]-3-phenyl-propionic acid]: the negative-log IC50 (pIC50) was greater than 5.30.
On to `CC(C)(C(=O)O)N(Cc1ccc(-c2cccc(C(F)(F)F)c2)o1)C(=O)c1ccc(Cl)cc1Cl` [compound #147, (2s)-2-{(2,4-Dichloro-benzoyl)-[5-(3-trifluoromethyl-phenyl)-furan-2-ylmethyl]-amino}-2-methyl-propionic acid], for which the pIC50 is 4.70 to 5.30.
With `O=C(O)[C@H](Cc1ccccc1)N(Cc1cnc(-c2cccc(C(F)(F)F)c2)s1)C(=O)c1ccc(Cl)cc1Cl` [compound #148, (2s)-2-{(2,4-Dichloro-benzoyl)-[2-(3-trifluoromethyl-phenyl)-thiazol-5-ylmethyl]-amino}-3-phenyl-propionic acid], the pIC50 is greater than 5.30.
For the compound `O=C(O)[C@H](Cc1ccccc1)N(Cc1csc([N+](=O)[O-])c1)C(=O)c1ccc(Cl)cc1Cl` [compound #149, (2s)-2-[(2,4-Dichloro-benzoyl)-(5-nitro-thiophen-3-ylmethyl)-amino]-3-phenyl-propionic acid], the negative-log IC50 (pIC50) is greater than 5.30.
For the compound `CS(=O)(=O)c1ccc(CN(C(=O)c2ccc(Cl)cc2Cl)[C@@H](Cc2ccccc2)C(=O)O)cc1` [compound #150, (2s)-2-[(2,4-Dichloro-benzoyl)-(4-methanesulfonyl-benzyl)-amino]-3-phenyl-propionic acid], the pIC50 was greater than 5.30.
Consider `COc1cccc(CN(C(=O)c2ccc(Cl)cc2Cl)[C@@H](Cc2ccccc2)C(=O)O)c1` [compound #151, (2s)-2-[(2,4-Dichloro-benzoyl)-(3-methoxy-benzyl)-amino]-3-phenyl-propionic acid], for which the pIC50 was greater than 5.30.
Turning to `Cc1cccc(CN(C(=O)c2ccc(Cl)cc2Cl)[C@@H](Cc2ccccc2)C(=O)O)c1` [compound #152, (2s)-2-[(2,4-Dichloro-benzoyl)-(3-methyl-benzyl)-amino]-3-phenyl-propionic acid], the pIC50 is greater than 5.30.
The result for `Cn1nc(C(F)(F)F)c(CN(C(=O)c2ccc(Cl)cc2Cl)[C@@H](Cc2ccccc2)C(=O)O)c1Oc1cccc(Cl)c1` [compound #153, (2s)-2-[[5-(3-Chloro-phenoxy)-1-methyl-3-trifluoromethyl-1h-pyrazol-4-ylmethyl]-(2,4-dichloro-benzoyl)-amino]-3-phenyl-propionic acid] reads 4.70 to 5.30; that for `O=C(O)[C@H](Cc1ccccc1)N(Cc1sccc1-c1cc(F)cc(F)c1)C(=O)c1ccc(Cl)cc1Cl` [compound #154, (2s)-2-{(2,4-Dichloro-benzoyl)-[3-(3,5-difluoro-phenyl)-thiophen-2-ylmethyl]-amino}-3-phenyl-propionic acid], greater than 5.30.
Regarding `O=C(O)[C@H](Cc1ccccc1)N(Cc1sccc1-c1ccc(Cl)c(Cl)c1)C(=O)c1ccc(Cl)cc1Cl` [compound #155, (2s)-2-{(2,4-Dichloro-benzoyl)-[3-(3,4-dichloro-phenyl)-thiophen-2-ylmethyl]-amino}-3-phenyl-propionic acid], the pIC50 was greater than 5.30.
Turning to `O=C(O)[C@H](Cc1ccccc1)N(Cc1sccc1-c1ccc(Cl)c(F)c1)C(=O)c1ccc(Cl)cc1Cl` [compound #156, (2s)-2-[[3-(4-Chloro-3-fluoro-phenyl)-thiophen-2-ylmethyl]-(2,4-dichloro-benzoyl)-amino]-3-phenyl-propionic acid], the pIC50 is 4.70 to 5.30.
